Laboratory results: patent US9884063B2, “Amido-substituted azole compounds” (Bayer Pharma Aktiengesellschaft, priority 2014, dated 2018)

Key:
[1] = target: T1, TNKS2 (Homo sapiens, UniProt Q9H2K2); assay: Modified TNKS2 Assay 2 (auto-parsylation, [3H]-NAD+ SPA); format: biochemical; conditions: 6 nM TNKS2, 96 well
T1 sequence (Q9H2K2 1-1166): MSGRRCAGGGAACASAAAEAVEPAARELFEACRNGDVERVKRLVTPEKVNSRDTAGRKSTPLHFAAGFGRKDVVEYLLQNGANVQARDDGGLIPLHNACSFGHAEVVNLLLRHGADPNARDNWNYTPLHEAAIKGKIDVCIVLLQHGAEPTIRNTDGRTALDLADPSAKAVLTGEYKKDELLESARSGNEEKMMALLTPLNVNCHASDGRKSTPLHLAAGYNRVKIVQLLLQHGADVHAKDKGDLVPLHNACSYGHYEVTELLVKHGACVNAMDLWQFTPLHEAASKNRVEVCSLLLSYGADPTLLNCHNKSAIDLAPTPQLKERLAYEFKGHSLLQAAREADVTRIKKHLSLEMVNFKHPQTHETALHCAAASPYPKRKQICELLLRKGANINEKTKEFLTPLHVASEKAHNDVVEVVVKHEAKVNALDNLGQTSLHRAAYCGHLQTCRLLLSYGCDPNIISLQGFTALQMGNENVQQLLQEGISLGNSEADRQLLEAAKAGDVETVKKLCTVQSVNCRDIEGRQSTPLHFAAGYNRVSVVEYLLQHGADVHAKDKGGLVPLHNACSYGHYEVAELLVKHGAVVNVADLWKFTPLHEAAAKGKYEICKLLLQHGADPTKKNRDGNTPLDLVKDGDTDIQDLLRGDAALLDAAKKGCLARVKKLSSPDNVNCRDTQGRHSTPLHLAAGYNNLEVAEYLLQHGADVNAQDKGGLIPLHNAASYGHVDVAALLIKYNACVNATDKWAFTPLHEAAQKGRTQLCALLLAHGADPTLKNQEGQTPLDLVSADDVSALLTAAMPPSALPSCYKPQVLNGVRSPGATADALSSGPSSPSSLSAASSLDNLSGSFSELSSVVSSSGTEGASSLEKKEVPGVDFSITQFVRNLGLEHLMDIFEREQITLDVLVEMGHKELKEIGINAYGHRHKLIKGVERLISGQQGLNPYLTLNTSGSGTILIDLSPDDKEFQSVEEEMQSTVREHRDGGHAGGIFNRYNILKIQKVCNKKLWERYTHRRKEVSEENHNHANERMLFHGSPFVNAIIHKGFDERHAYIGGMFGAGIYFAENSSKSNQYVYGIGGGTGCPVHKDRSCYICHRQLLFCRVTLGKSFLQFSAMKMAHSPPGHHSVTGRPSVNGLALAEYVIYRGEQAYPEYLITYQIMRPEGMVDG

[2] = tested on: wildtype Wnt signaling cascade; assay: HEK293 TOP Assay (Super TopFlash luciferase reporter, Wnt-3a stimulated); format: cell-based; conditions: Homo sapiens, HEK293, 16 h
How it was run: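 Compounds (50 μM down to 15 nM, 3.16-fold steps, in CAFTY buffer pH 7.4, 2 mM Ca2+, 0.01% BSA) tested in parallel on TOP and FOP HEK293 reporter lines to define selective wildtype Wnt inhibition. Pathway driven by recombinant human Wnt-3a applied at 2500–5 ng/ml in two-fold dilutions.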

[3] = HEK293 TOP reporter cell line, Wnt-3a at EC50, 16 hours incubation, compound dilution series 50 μM to 15 nM
[4] = HEK293 TOP reporter cells, Wnt3a at EC50, 16 hours, luciferase

## CCS(=N)(=O)c1ccc(C(=O)Nc2ccc(NC(=O)c3[nH]cnc3C(=O)NCCN3CCCCC3)cc2)c(Cl)c1 (stereo not shown) [Example 256, N^5-(4-{[2-chloro-4-(S-ethylsulfonimidoyl)benzoyl]amino}phenyl)-N^4-[2-(piperidin-1-yl)ethyl]-1H-imidazole-4,5-dicarboxamide]
[1]
  IC50: 10 nM
[2]; [3]
  IC50: 900 nM

## CNC(=O)c1nc[nH]c1C(=O)Nc1ccc(NC(=O)c2ccc(F)cc2Cl)nc1 [Example 16, N^5-{6-[(2-chloro-4-fluorobenzoyl)amino]pyridin-3-yl}-N^4-methyl-1H-imidazole-4,5-dicarboxamide]
[1]
  IC50: 100 nM
[2]; [3]
  IC50: 180 nM
[2]; [4]
  IC50: 180 nM

## CC(C)(CN1CCOCC1)NC(=O)c1[nH]cnc1C(=O)Nc1ccc(NC(=O)c2ccc(F)cc2Cl)cc1 [Example 207, N^4-{4-[(2-chloro-4-fluorobenzoyl)amino]phenyl}-N^5-[2-methyl-1-(morpholin-4-yl)propan-2-yl]-1H-imidazole-4,5-dicarboxamide]
[1]
  IC50: 210 nM
[2]; [3]
  IC50: 710 nM

## O=C(Nc1ccc(NC(=O)c2nc[nH]c2C(=O)NCCF)cc1)c1ccc(F)cc1Cl [Example 173, N^4-{4-[(2-chloro-4-fluorobenzoyl)amino]phenyl}-N^5-(2-fluoroethyl)-1H-imidazole-4,5-dicarboxamide]
[1]
  IC50: 50 nM
[2]; [3]
  IC50: 270 nM

## NC(=O)c1nc[nH]c1C(=O)Nc1ccc(NC(=O)c2ccc(F)cc2Cl)cc1 [Example 121]
[1]
  IC50: 70 nM
[2]; [3]
  IC50: 270 nM

## CC(C)NC(=O)c1nc[nH]c1C(=O)Nc1ccc(NC(=O)c2ccc(F)cc2Cl)cc1 [Example 10, N^5-{4-[(2-chloro-4-fluorobenzoyl)amino]phenyl}-N^4-isopropyl-1H-imidazole-4,5-dicarboxamide]
[1]
  IC50: 350 nM
[2]; [3]
  IC50: 170 nM
[2]; [4]
  IC50: 180 nM

## CNC(=O)c1nc[nH]c1C(=O)Nc1ccc(NC(=O)c2cccc(Cl)c2Cl)cc1 [Example 1, N^5-{4-[(2,3-dichlorobenzoyl)amino]phenyl}-N^4-methyl-1H-imidazole-4,5-dicarboxamide]
[1]
  IC50: 3300 nM
[2]; [3]
  IC50: 1200 nM
[2]; [4]
  IC50: 1100 nM

## CNC(=O)c1nc[nH]c1C(=O)Nc1ccc(NC(=O)c2ccccc2Cl)cc1 [Example 27, N^5-{4-[(2-chlorobenzoyl)amino]phenyl}-N^4-methyl-1H-imidazole-4,5-dicarboxamide]
[1]
  IC50: 530 nM
[2]; [3]
  IC50: 390 nM
[2]; [4]
  IC50: 340 nM

## O=C(Nc1ccc(NC(=O)c2nc[nH]c2C(=O)NC2CC2)cc1)c1ccc(F)cc1 [Example 131, N^5-cyclopropyl-N^4-{4-[(4-fluorobenzoyl)amino]phenyl}-1H-imidazole-4,5-dicarboxamide]
[1]
  IC50: > 10000 nM
[2]; [3]
  IC50: 9200 nM
